Test results reported in patent US20160201132A1, “GENE EXPRESSION BIOMARKERS OF LAQUINIMOD RESPONSIVENESS” (Teva Pharmaceutical Industries Ltd., priority 2013, published 2016).

System: PBMC of RRMS patients
Assay: Gene expression microarray analysis (HG-U133A-2) of PBMC from RRMS patients treated with LAQ, ancillary study to ALLEGRO
Format: in vivo, human
Conditions: for Fold-Change (1.0 vs. 0.0): one month of treatment
Source text: The goal of this ancillary study was to characterize gene expression changes and corresponding biological mechanisms induced in PBMC of RRMS patients by LAQ treatment. According to ALLEGRO clinical trial inclusion criteria, 25 patients were randomly assigned to receive LAQ (n=13, age 38.8±2.3 years, female/male ratio: 8/5) or placebo (n=12, age 37.2±3.4 years, female/male ratio: 8/4).
Peripheral blood samples were obtained from RRMS patients at baseline before start of LAQ treatment or placebo, after 0, 1, 6 and 24 month of treatment (visit 0, 1, 6 and 7 according to ALLEGRO clinical trial protocol correspondently) for gene microarray analysis.
Briefly, 1) Peripheral blood mononuclear cells (PBMC) were obtained from RRMS patients that participated in ALLEGRO and were treated daily with 0.6 mg LAQ or placebo. PBMC were subjected for gene expression analysis (HU-133A-2-Affymatrix arrays) at baseline and at 1 and 6 months of LAQ treatment; 2) Data was analyzed by Partek Genomics Solution software. Most informative genes (MIGs) were defined as those that differentiated between groups with p<0.01. Gene functional annotation, enrichment and pathway analysis were performed by Ingenuity software. For each time point, genes that changed in placebo group were excluded from further analysis; and 3) Verification of LAQ related mechanism was performed by Western blot.
PBMC were extracted from 15 ml peripheral blood, separated by Ficoll-Hypaque gradient. Total RNA was extracted using both Trizol (Invitrogen, USA) and Phase-Lock-Gel columns (Eppendorf, Germany) including a DNase digestion step. RNA integrity was assessed by RNA Experion automated electrophoresis system (Bio-Rad Laboratories, Hercules, Calif.).
Probe synthesis using 3 μg total RNA, hybridization, detection, and scanning was performed according to the standard Affymetrix, Inc. USA protocols; cDNA was synthesized using the Two-Cycle cDNA Synthesis Kit (Affymetrix, Inc., USA), and in-vitro transcription performed with the GeneChip IVT Labeling Kit (Affymetrix, Inc., USA). The biotin-labeled IVT-RNA was hybridized to HG-U133A-2 arrays containing 18,400 gene transcripts, each corresponding to 14,500 well-annotated human genes, washed in a GeneChip Fluidics Station 450 (Hewlett Packard, USA, GeneArray-™ scanner G2500A) and scanned according to the manufacturer's protocol (Affymetrix, Inc., USA).
Data analysis was performed on Partek Genomics Solution software (www.partek.com; Partek Incorporated, St. Louis, Mo.). Expression values were computed from raw CEL files by applying the Robust Multi-Chip Average (RMA) background correction algorithm. RMA correction included: 1) values background correction; 2) quintile normalization; 3) log 2 transformation; and 4) median polish summarization. The ANOVA, Repeated Measures and correlation analysis implicated in Partek software ware applied to evaluate LAQ effects. Most informative genes MIGs were defined as those that differentiated between experimental groups with p<0.01. All p-values were calculated for False Discovery Rate (FDR) multiple test correction at p=0.05.
Additionally, significance of individual genes was tested by parametric T-test and non parametric Mann-Whitney test using Bootstrapping approach based on repeated permutations of the data with 5% FDR for multiple testing.
Gene functional annotation, enrichment, and pathway analyses to identify the leading biological pathways that operated under LAQ treatment were performed by Ingenuity Pathways Analysis software (www.ingenuity.com).
ANOVA analysis was used to compare PBMC gene expression after 1, 6 or 24 month of LAQ treatment with baseline gene expression.
For each time point inventors performed analysis source of variation in dataset. (FIG. 1). Age, gender and batch effects were considered as confounders regarding LAQ or Placebo related changes. For each time point genes associated with Placebo effect were evaluated and excluded from further analysis. […]

[1] = 1 month of LAQ 0.6 mg/day vs baseline
[2] = 6 months of LAQ 0.6 mg/day vs baseline
[3] = 1564 FDR genes, combined 6 and 24 months

CCN(C(=O)c1c(O)c2c(Cl)cccc2n(C)c1=O)c1ccccc1 [LAQ, 5-chloro-N-ethyl-4-hydroxy-1-methyl-2-oxo-N-phenyl-1,2-dihydroquinoline-3-carboxamide]
# of genes p < 0.01 (LAQ related MIGs, ANOVA) [1]: 354
Down regulated genes (LAQ related MIGs) [1]: 348
Up-regulated genes (LAQ related MIGs) [1]: 6
# of genes p < 0.01 (LAQ related MIGs, ANOVA) [2]: 1562
Down regulated genes (LAQ related MIGs) [2]: 1552
Up-regulated genes (LAQ related MIGs) [2]: 10
p, suppression of genes related to the TGFB pathway (6 months or longer treatment): 1.9*10^−2
genes (n), suppression of cell migration function [3]: 233
genes (n), suppression of chemotaxis [3]: 78
p, suppression of cell migration function [3]: 4.5*10^−14
p, suppression of chemotaxis [3]: 4.3*10^−5
Fold-Change (1.0 vs. 0.0) (202280_at (gene symbol not given)): −1.157
Fold-Change (1.0 vs. 0.0) (ABLIM3 205730_s_at): −1.542
Fold-Change (1.0 vs. 0.0) (ALDOB 204704_s_at): −1.119
Fold-Change (1.0 vs. 0.0) (APBA2 209871_s_at): −1.163
Fold-Change (1.0 vs. 0.0) (ARHGEF10 215139_at): −1.176
Fold-Change (1.0 vs. 0.0) (ARMCX6 /// LOC653354 214749_s_at): −1.178
Fold-Change (1.0 vs. 0.0) (ASAP2 206414_s_at): −1.773
Fold-Change (1.0 vs. 0.0) (C1orf116 219476_at): −1.222
Fold-Change (1.0 vs. 0.0) (CA5A 207421_at): −1.243
Fold-Change (1.0 vs. 0.0) (CALD1 201617_x_at): −1.326
Fold-Change (1.0 vs. 0.0) (CALD1 212077_at): −1.896
Fold-Change (1.0 vs. 0.0) (CAPRIN1 200722_s_at): −1.157
Fold-Change (1.0 vs. 0.0) (CCDC93 209689_at): −1.133
Fold-Change (1.0 vs. 0.0) (CD84 211190_x_at): −1.166
Fold-Change (1.0 vs. 0.0) (CDC14B 208022_s_at): −1.4133
Fold-Change (1.0 vs. 0.0) (CLDN5 204482_at): −1.364
Fold-Change (1.0 vs. 0.0) (CTDSPL 201905_s_at): −1.468
Fold-Change (1.0 vs. 0.0) (DLG4 210684_s_at): −1.187
Fold-Change (1.0 vs. 0.0) (DNM3 209839_at): −1.8
Fold-Change (1.0 vs. 0.0) (FABP7 205030_at): −1.176
Fold-Change (1.0 vs. 0.0) (FAM12B 220759_at): −1.1468
Fold-Change (1.0 vs. 0.0) (FBXO7 201178_at): −1.135
Fold-Change (1.0 vs. 0.0) (FBXW7 218751_s_at): −1.112
Fold-Change (1.0 vs. 0.0) (FSTL1 208782_at): −1.694
Fold-Change (1.0 vs. 0.0) (GNAS 200780_x_at): −1.158
Fold-Change (1.0 vs. 0.0) (GNAS 200981_x_at): −1.1585
Fold-Change (1.0 vs. 0.0) (GNAS 212273_x_at): −1.156
Fold-Change (1.0 vs. 0.0) (GNAS 214548_x_at): −1.159
Fold-Change (1.0 vs. 0.0) (GNB5 207124_s_at): −1.1663
Fold-Change (1.0 vs. 0.0) (GNB5 211871_x_at): −1.159
Fold-Change (1.0 vs. 0.0) (GP1BA 207389_at): −1.548
Fold-Change (1.0 vs. 0.0) (GPRASP1 204793_at): −1.16
Fold-Change (1.0 vs. 0.0) (GRAP2 208406_s_at): −1.394
Fold-Change (1.0 vs. 0.0) (GSPT1 217595_at): −1.116
Fold-Change (1.0 vs. 0.0) (GUCY1B3 203817_at): −1.73
Fold-Change (1.0 vs. 0.0) (H2BFS /// HIST1H2BK 208579_x_at): −1.481
Fold-Change (1.0 vs. 0.0) (HIST1H2AC 215071_s_at): −1.628
Fold-Change (1.0 vs. 0.0) (HIST1H2AJ 208583_x_at): −1.278
Fold-Change (1.0 vs. 0.0) (HIST1H2BK 209806_at): −1.418
Fold-Change (1.0 vs. 0.0) (HLA-E 217456_x_at): −1.062
Fold-Change (1.0 vs. 0.0) (IGF2BP3 203819_s_at): −1.72
Fold-Change (1.0 vs. 0.0) (ITGB1 211945_s_at): −1.17
Fold-Change (1.0 vs. 0.0) (ITGB3 204628_s_at): −1.579
Fold-Change (1.0 vs. 0.0) (ITGB3 215240_at): −1.589
Fold-Change (1.0 vs. 0.0) (ITGB5 201125_s_at): −1.713
Fold-Change (1.0 vs. 0.0) (LIMS1 207198_s_at): −1.445
Fold-Change (1.0 vs. 0.0) (LIMS1 212687_at): −1.3332
Fold-Change (1.0 vs. 0.0) (LOC150776 /// SMPD4 207856_s_at): −1.0672
Fold-Change (1.0 vs. 0.0) (LOC157627 214839_at): 1.326
Fold-Change (1.0 vs. 0.0) (LUC7L2 220099_s_at): −1.155
